Measurements: US7416893B2, “Methods for diagnosing drug-resistant cancer cells or for identifying chemotherapeutic agents by measuring anomalous intracellular ion and/or second messenger dynamics” (Atto Bioscience, priority 2002, dated 2008)
Marks after values point to notes of the source that are not given here.

Assays:
[1] = system: MCF-7/ADR cells; assay: Single-cell fura-2 [Ca2+]i imaging, MCF-7/ADR drug-resistant cells; assay type: cell-based, human; conditions: for Fold [Ca2+]i increase evoked by agonist: mean ± S.E.M.
Description: (§6) Cells, grown on 25 mm round, 1 mm-thick glass coverslips were loaded with cell-permeable fura-2 AM (5 uM; Molecular Probes, Eugene, Oreg.) at 37° C. in growth medium for 30-60 min. […] Cells were then thoroughly washed with buffer H/H (Ham's F-10 nutrient mixture supplemented with 20 mM Na-HEPES, pH 7.4) and let sit for 10 min at room temperature to allow complete fura-2 AM de-esterification. […] For each coverslip, 10-99 cells were simultaneously imaged in a given microscopic field and [Ca^2+]1 was recorded from each individual cell in resting and stimulated conditions. Single Ca^2+ profiles were averaged to yield [Ca^2+]1 population means (±S.E.M.) that were plotted versus time.
(§7) Cells were grown as monolayers on glass supports and labeled with the cell-permeable fluorescent dye, Fura-2 (Molecular Probes, Inc.).
(§8) Basal [Ca^2+]1 levels and responses to ATP (50-100 uM), UTP (50-100 uM), BK (10 uM), THR (5 uM), or TG (1 uM) were studied in single cells. […] Ca^2+ responses were compared between pairs of DS and DR clones tested in parallel (MCF-7/ADR cells were compared to their parental wt, DS line obtained from Georgetown University; MCF-7/Ad-Vp cells were compared to the NIH wt, DS line; other DR clones were compared mainly with wt, DS MCF-7 cells from ATCC; C6 clones resistant to doxorubicin were compared to their wild type parental line.
(§9) Cells were labeled with Fura-2 and imaged. After 30-60 sec., the agonists were applied and calcium responses were recorded in single cells. The fold increase in [Ca^2+]1 were calculated and the average values from all the experiments were used in this table.
(§10) Cells were loaded with Fura-2 and imaged in the absence or presence of EGTA, which is a calcium chelator. Cells were challenged with ATP and Ca responses were recorded. The magnitude and decay t1/2 of the responses were calculated and the respective mean of all the experiments was compared.
(§11) DR and DS cells were then exposed to the modulators for 2 or 24 hr and challenged with ATP.

[2] = system: MCF-7/C4 cells; assay: Single-cell fura-2 [Ca2+]i imaging, MCF-7/C4 drug-resistant cells; assay type: cell-based, human; conditions: for Fold [Ca2+]i increase evoked by agonist: mean ± S.E.M.
Excerpt: (§1) More specifically, human breast cancer cell (“bc”) lines were obtained from the following sources: wild type (“wt”), estrogen receptor-positive MCF-7 cells were obtained from three different sources: American Type Culture Collection (ATCC, Manassas, Va.), the Lombardi Cancer Center, Georgetown University (Washington, D.C.) and the National Cancer Institute, NIH (Bethesda, Md.) and will be referred to as “wt”, DS MCF-7 throughout the paper. Wild type, estrogen receptor-negative MDA-MB-231 cells were obtained from the Lombardi Cancer Center, Georgetown University. Five DR, MCF-7-derived clonal cell lines were used in this study. MCF-7/ADR (selected by exposure and resistance to adriamycin, a DNA intercalating agent and DNA topoisomerase II inhibitor; (Vickers, P. J. et al. Mol. Endocrinol. 2:886-892, 1988) were from the Lombardi Cancer Center, Georgetown University; MCF-7/C4 (selected, after mutagenesis, for resistance to camptothecin, a DNA topoisomerase I inhibitor) were obtained from Dr. Y. Pommier (NCI, NIH, Bethesda, Md.) (Fujimori, A. et al. Mol. Pharmacol. 50:1472-1478, 1996); MCF-7/VP cells (selected by exposure and resistance to VP-16 etoposide, a DNA topoisomerase II inhibitor; Schneider, E. et al. Cancer Res. 54:152-158, 1994) were obtained from Dr. E. Schneider, Wadsworth Center, New York State Dept. of Health, Albany, N.Y.; MCF-7/Melph cells (selected by exposure and resistance to melphalan, a DNA alkylating agent; Moscow, J A et al. Br. J. Cancer 68:732-737, 1993) were obtained from Dr. J. Moscow, University of Kentucky, Lexington, Ky.
(§2) For data mentioned below, [Ca^2+]1 was measured by single-cell fura-2 excitation ratio imaging as previously described (DeBernardi, M. A. et al. Mol Pharmacol 43:451-58, 1993). Cells, grown on 25 mm round, 1 mm-thick glass coverslips were loaded with cell-permeable fura-2 AM (5 uM; Molecular Probes, Eugene, Oreg.) at 37° C. in growth medium for 30-60 min. MCF-7/ADR, MCF-7/Ad-Vp, and C6-B and E cells were difficult to load with fura-2 AM, likely reflecting a high degree of dye extrusion (Homolya, L. et al. J Biol. Chem. 268:21493-96, 1993). […] Cells were then thoroughly washed with buffer H/H (Ham's F-10 nutrient mixture supplemented with 20 mM Na-HEPES, pH 7.4) and let sit for 10 min at room temperature to allow complete fura-2 AM de-esterification. Cells were imaged at room temperature in H/H buffer using an Attofluor RatioVision Digital Fluorescence Microscopy System (Atto Bioscience, Rockville, Md.) equipped with a Zeiss Axiovert 135 microscope and a F-Fluar 40×, 1.3 na, oil-immersion objective. Fura-2 was excited at 334 and 380 nm with the emission monitored at >510 nm; the 334/380 nm excitation ratio increases as a function of the [Ca^2+]1. Calibration was done in vitro with 10 uM fura-2 pentapotassium salt in the presence of 1 mM CaCl2 or 1 mM EGTA and the 334/380 nm excitation ratio was converted to [Ca^2+]1 nM values (Grynkiewicz et al J Biol Chem 260:3440-3450, 1985). For each coverslip, 10-99 cells were simultaneously imaged in a given microscopic field and [Ca^2+]1 was recorded from each individual cell in resting and stimulated conditions. Single Ca^2+ profiles were averaged to yield [Ca^2+]1 population means (±S.E.M.) that were plotted versus time. […]
(§3) Single cell Ca^2+ dynamics were monitored by single cell fluorescence digital imaging according to the method previously described by DeBernardi, M. A. et al. Mol Phamacol 43: 451-458 (1993). […]

[3] = system: human breast cancer cells (DS and DR); assay: Single-cell fura-2 [Ca2+]i imaging, DS and DR human breast cancer cells (statements across lines); assay type: cell-based; conditions: for Effect on decay kinetics of ATP-evoked response: 2 or 24 hr, VER/CSA in wt or MCF-7/ADR, GEN/PRO in wt or MCF-7/VP; for Effect of acute pre-treatment on ATP-induced [Ca2+]i responses: 10 min pre-treatment, VER 25 uM, CSA 10 uM, GEN 100 uM, PRO 2 mM
Description: as §6, §7, §8
Human breast cancer cells loaded with Fura-2, were exposed to various agonists and [Ca^2+]1 responses from single cells were recorded.
as §11

[4] = system: MCF-7/VP cells; assay: Single-cell fura-2 [Ca2+]i imaging, MCF-7/VP drug-resistant cells; assay type: cell-based, human; conditions: mean ± S.E.M.
Description: as §6, §7, §8, §9

[5] = system: MDA-MB-231 cells; assay: Single-cell fura-2 [Ca2+]i imaging, MDA-MB-231 wt cells; assay type: cell-based, human; conditions: for Fold [Ca2+]i increase evoked by agonist: mean ± S.E.M.
Excerpt: as §1, §2, §3

[6] = system: MCF-7 wt cells; assay: Single-cell fura-2 [Ca2+]i imaging, MCF-7 wt drug-sensitive cells; assay type: cell-based, human; conditions: for Fold [Ca2+]i increase evoked by agonist: mean ± S.E.M.
Description: More specifically, human breast cancer cell (“bc”) lines were obtained from the following sources: wild type (“wt”), estrogen receptor-positive MCF-7 cells were obtained from three different sources: American Type Culture Collection (ATCC, Manassas, Va.), the Lombardi Cancer Center, Georgetown University (Washington, D.C.) and the National Cancer Institute, NIH (Bethesda, Md.) and will be referred to as “wt”, DS MCF-7 throughout the paper. […] Five DR, MCF-7-derived clonal cell lines were used in this study.
as §6, §7, §8, §9, §10

[7] = system: MCF-7/Melph cells; assay: Single-cell fura-2 [Ca2+]i imaging, MCF-7/Melph drug-resistant cells; assay type: cell-based, human; conditions: mean ± S.E.M.
[8] = system: MCF-7/AdVp cells; assay: Single-cell fura-2 [Ca2+]i imaging, MCF-7/Ad-Vp drug-resistant cells; assay type: cell-based, human; conditions: mean ± S.E.M.
Description: as §6, §7, §8, §9

[9] = system: C6 rat glioblastoma clone A; assay: Single-cell fura-2 [Ca2+]i imaging, C6 clone A; assay type: cell-based
Description: (§4) C6 rat glioblastoma cell lines: Wild type cells and progressively doxorubicin-resistant clones were obtained from Dr. J. Robert, Institute Bergonie, Bordeaux, France. Clones were selected by exposure to increasing doses of doxorubicin: Clone A, 0.001 μg/ml; Clone B, 0.1 μg/ml, and Clone E, 0.5 μg/ml.
(§5) For data mentioned below, [Ca^2+]1 was measured by single-cell fura-2 excitation ratio imaging as previously described (DeBernardi, M. A. et al. Mol Pharmacol 43:451-58, 1993). Cells, grown on 25 mm round, 1 mm-thick glass coverslips were loaded with cell-permeable fura-2 AM (5 uM; Molecular Probes, Eugene, Oreg.) at 37° C. in growth medium for 30-60 min. […] Cells were imaged at room temperature in H/H buffer using an Attofluor RatioVision Digital Fluorescence Microscopy System (Atto Bioscience, Rockville, Md.) equipped with a Zeiss Axiovert 135 microscope and a F-Fluar 40×, 1.3 na, oil-immersion objective. Fura-2 was excited at 334 and 380 nm with the emission monitored at >510 nm; the 334/380 nm excitation ratio increases as a function of the [Ca^2+]1. […] For each coverslip, 10-99 cells were simultaneously imaged in a given microscopic field and [Ca^2+]1 was recorded from each individual cell in resting and stimulated conditions. […]

[10] = system: C6 rat glioblastoma clone B; assay: Single-cell fura-2 [Ca2+]i imaging, C6 clone B; assay type: cell-based
Description: as §4, §5

[11] = system: C6 rat glioblastoma clone E; assay: Single-cell fura-2 [Ca2+]i imaging, C6 clone E; assay type: cell-based
Description: as §4, §5

[12] = system: C6 DR clones A, B and E; assay: Single-cell fura-2 [Ca2+]i imaging, all C6 DR clones; assay type: cell-based, rat; conditions: all the clones
Description: as §4, §5

[13] = system: C6 rat astrocytoma clone E; conditions: cited from earlier work
[14] = system: C6 rat astrocytoma clone A; conditions: cited from earlier work
[15] = system: C6 rat astrocytoma clone B; conditions: cited from earlier work

Nc1ncnc2c1ncn2[C@@H]1O[C@H](COP(=O)(O)OP(=O)(O)OP(=O)(O)O)[C@@H](O)[C@H]1O [ATP]
ATP-evoked [Ca2+]i, fold increase ([1]; EGTA-containing Buffer): 2.4 ± 0.3 fold
ATP-evoked [Ca2+]i, fold increase ([1]; Standard Buffer): 3.7 ± 0.7 fold
Fold [Ca2+]i increase evoked by agonist [1]: 2.9 ± 0.7 (n = 25) fold
ATP-evoked [Ca2+]i, fold increase ([2]; EGTA-containing Buffer): 4.9 ± 0.4 fold
ATP-evoked [Ca2+]i, fold increase ([2]; Standard Buffer): 5.8 ± 0.9 fold
Fold [Ca2+]i increase evoked by agonist [2]: 5.9 ± 0.8 (n = 12) fold
ATP-increased [Ca2+]i decay kinetics faster in absence than in presence of extracellular Ca2+ ([3]; MCF-7/ADR and MCF-7/C4 cells, EGTA vs standard buffer): ≥ 60%
[Ca2+]i increase when applied following TG ([3]; MCF-7/C4, MCF-7/VP and MCF-7/Ad-Vp cells): modest and transient
ATP-increased [Ca2+]i decay kinetics faster in Ca2+-free conditions ([3]; MCF-7 and MDA-MB-231 wt cells, EGTA vs standard buffer): ≤ 40%
Ca2+ response evoked when applied following TG ([3]; MCF-7 wt and MCF-7/ADR cells): failed to evoke
Fold [Ca2+]i increase evoked by agonist [4]: 4.4 ± 1.2 (n = 11) fold
ATP-evoked [Ca2+]i, fold increase ([5]; EGTA-containing Buffer): 26.0 ± 8.1 fold
ATP-evoked [Ca2+]i, fold increase ([5]; Standard Buffer): 16.5 ± 4.8 fold
Fold [Ca2+]i increase evoked by agonist [5]: 16.5 ± 4.8 fold
ATP-evoked [Ca2+]i, fold increase ([6]; EGTA-containing Buffer): 6.2 ± 2.1 fold
ATP-evoked [Ca2+]i, fold increase ([6]; Standard Buffer): 8.1 ± 2.4^b fold
Fold [Ca2+]i increase evoked by agonist [6]: 7.9 ± 1.8^a (n = 67) fold
Fold [Ca2+]i increase evoked by agonist [7]: 16.0 ± 6.1 fold
Fold [Ca2+]i increase evoked by agonist [8]: 4.5 ± 1.2 (n = 12) fold

O=c1c(-c2ccc(O)cc2)coc2cc(O)cc(O)c12 [GEN, genistein]
Effect on decay kinetics of ATP-evoked response [3]: not affected
Effect of acute pre-treatment on ATP-induced [Ca2+]i responses [3]: did not affect

CCCN(CCC)S(=O)(=O)c1ccc(C(=O)O)cc1 [PRO, probenecid]
Effect on decay kinetics of ATP-evoked response [3]: not affected
Effect of acute pre-treatment on ATP-induced [Ca2+]i responses [3]: did not affect

C/C=C(/C)C(=O)O[C@H]1C(C)=C2[C@H]([C@@H]1OC(=O)CCCCCCC)[C@@](C)(OC(C)=O)C[C@H](OC(=O)CCC)[C@@]1(O)[C@H]2OC(=O)[C@@]1(C)O [TG, thapsigargin]
Fold [Ca2+]i increase evoked by agonist [1]: 2.7 ± 0.7 fold
Induced [Ca2+]i increase compared with C6 parental cells [9]: greater
Fold [Ca2+]i increase evoked by agonist [2]: 3.4 ± 0.8 (n = 7) fold
Induced [Ca2+]i increase compared with C6 parental cells [10]: much reduced response
[Ca2+]i increase when applied after ATP ([3]; all DR clones and MDA-MB-231 wt, except MCF-7 wt and MCF-7/VP): able to increase
Fold increase in [Ca2+]i ([3]; all clones, applied as the first drug): ~3 fold
Fold [Ca2+]i increase evoked by agonist [4]: 1.5 ± 0.1 (n = 6) fold
Fold [Ca2+]i increase evoked by agonist [5]: 3.5 ± 0.9 (n = 3) fold
Induced [Ca2+]i increase compared with C6 parental cells [11]: much reduced response
Fold [Ca2+]i increase evoked by agonist [6]: 2.8 ± 0.5 fold
[Ca2+]i decay kinetics after stimulation, compared with wild type cells [12]: comparable or faster
Fold [Ca2+]i increase evoked by agonist [8]: 2.4 ± 0.7 fold

O=c1ccn([C@@H]2O[C@H](COP(=O)(O)OP(=O)(O)OP(=O)(O)O)[C@@H](O)[C@H]2O)c(=O)[nH]1 [UTP]
Fold [Ca2+]i increase evoked by agonist [1]: 2.2 ± 0.3 fold
Fold [Ca2+]i increase evoked by agonist [4]: 5.2 ± 1.9 fold
Fold [Ca2+]i increase evoked by agonist [6]: 6.0 ± 1.3 fold
Fold [Ca2+]i increase evoked by agonist [7]: 3.7 ± 0.3 fold
Fold [Ca2+]i increase evoked by agonist [8]: 3.7 ± 0.8 fold

COc1cccc2c1C(=O)c1c(O)c3c(c(O)c1C2=O)C[C@@](O)(C(=O)CO)C[C@@H]3O[C@H]1C[C@H](N)[C@H](O)[C@H](C)O1 [adriamycin]
Fold resistance (dose to kill 50% of DR cells vs wt, DS cells) [13]: 400 fold
Fold resistance (dose to kill 50% of DR cells vs wt, DS cells) [14]: 7 fold
Fold resistance (dose to kill 50% of DR cells vs wt, DS cells) [15]: 33 fold

α-thrombin
Fold [Ca2+]i increase evoked by agonist [1]: 2.8 ± 1.1 (n = 3) fold
Fold [Ca2+]i increase evoked by agonist [2]: 3.3 ± 0.3 (n = 3) fold
Fold [Ca2+]i increase evoked by agonist [5]: 13.5 ± 5.1 fold
Fold [Ca2+]i increase evoked by agonist [6]: 2.8 ± 0.1 (n = 3) fold
